Results on 15 compounds are retold here after US20170304288A1, “Formulations of Methionine Aminopeptidase Inhibitors for Treating Infectious Diseases” (Texas Southern University, priority 2013, published 2017).

≈ marks a conversion by molar mass, not a printed value. Where two headings read alike, the source gives them in different places.

One data set has as its target T1, EfMetAP1 (Enterococcus faecalis, UniProt Q832M5).
T1 sequence (Q832M5 1-254): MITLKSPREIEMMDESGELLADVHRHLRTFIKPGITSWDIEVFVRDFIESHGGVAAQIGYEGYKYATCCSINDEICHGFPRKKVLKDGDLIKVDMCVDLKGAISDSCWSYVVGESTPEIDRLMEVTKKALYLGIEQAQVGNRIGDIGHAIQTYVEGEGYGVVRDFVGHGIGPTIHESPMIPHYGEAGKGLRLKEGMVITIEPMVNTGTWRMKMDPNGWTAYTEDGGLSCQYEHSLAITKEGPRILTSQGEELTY
The experiment in a line: EfMetAP1 inhibition, coupled methionine-proline aminopeptidase assay. The format is biochemical, E. faecalis. As for the experimental part:
175,000 compounds were screened against EfMetAP1, using the coupled methionine-proline aminopeptidase spectrophotometric assay (FIG. 7A). The primary screen was performed at final concentrations of 30 μM in 384-well plates using a titertek instrument with liquid handling capabilities coupled to a spectrophotometer. The compounds were dissolved in dimethylsulfoxide (DMSO) and the total reaction volume was 50 μL where each reaction contained 40 mM Hepes buffer (pH 7.5), 100 mM NaCl, 100 μg/mL BSA, 0.1 U/mL ProAP, 1.5 mM CoCl2, 600 μM substrate (Met-Pro-pNA), and 1.38 μM EfMetAP1. The Enzyme was pre-incubated with compounds for 20 min at room temperature followed by addition of substrate. The reaction was incubated at room temperature for 30 min and monitored at 405 nm on a spectrophotometer. […] The background hydrolysis was corrected and the data was fitted against the sigmoidal-dose response (variable slope) equation using GraphPad prism software.

Another data set has as its target HsMetAP2 (Homo sapiens, UniProt P50579). Description: MetAP enzyme inhibition IC50. The format is biochemical. How it is done: (§1) The enzyme was pre-incubated with compounds for 20 minutes at room temperature followed by addition of substrate. The reaction was incubated at room temperature for 30 min and monitored at 405 nm on a spectrophotometer. The background hydrolysis was subtracted and the data was fitted to a four-parameter logistic (variable slope) equation using GraphPad Prism software.

Another data set concerns the target HsMetAP1 (Homo sapiens, UniProt P53582). The experiment in a line: MetAP enzyme inhibition IC50. The format is biochemical. How it is done:
as §1

The test system of another data set is M. tuberculosis CDC 1551. The experiment in a line: Minimum Inhibitory Concentration in replicating M. tuberculosis. Type of data set: cell-based, Mycobacterium tuberculosis. The conditions noted are these: replicating culture; for MIC: Mycobacterium tuberculosis, CDC1551, read-out: Minimum Inhibitory Concentration Wild-type M. tuberculosis Strain CDC1551.
The next data set has as its system HIV-1 transcription. The conditions noted are these: Debebe et. al. 2007; cited from earlier work.
For the next data set, the system named is M. tuberculosis H37Ra. Description: Activity against dormant (aged non-growing) M. tuberculosis, XTT. Type of data set: cell-based, Mycobacterium tuberculosis. The conditions noted are these: for MIC: Mycobacterium tuberculosis, H37RA, read-out: MIC dormant M. tuberculosis Strain H37Ra. How it is done: The activity of the compounds in aged non-growing M. tuberculosis was achieved using a perister model at concentrations […] and monitored for three weeks. Briefly, 2 month old M. tuberculosis H37Ra culture was grown in 7H9 medium (Difco) with 10% albumin dextrose catalase (ADC) and 0.05% Tween 80. […] The compound was diluted from a 10 mM (in DMSO) to 10 μM (final concentration) and incubated with the bacilli in […] 7H9 medium (pH 5.5) without ADC in a 96-well plate for three days without shanking under 1% oxygen in a hypoxic chamber. This assay was performed in duplicates with Rifampin (5 mg/mL). Following a 3 day drug exposure, bacilli viability was determined by adding […] of 1 mg/mL of XTT (2,3-bis-(2-methoxy-4-nitro-5-sulfophenyl)-2H-tetrazolium-5-carboxanilide) and incubated at 37° C. for up to 7 days. The 96 well plates were then read at OD 485 nm.

For a further data set, the system named is HIV-1 (89.6 strain). Description: microbe, parasite or virus in culture. Type of data set: cell-based. The conditions noted are these: for inhibition of HIV-1 p24 antigen production: HIV-1 infected PBMC, ELISA; for inhibitory concentration equivalent to negative control (blank): p24 ELISA; for IC50: Human immunodeficiency virus 1, PBMC, read-out: concentration required for 50% inhibition of HIV1 p24 produced, primary screen, preliminary. Background: In an ELISA, binding on a coated surface is turned into a signal by an enzyme label.

The test system of data set [1] is L. major promastigotes over-expressing LmMetAP1. Description: Leishmania major luciferase assay, promastigotes over-expressing LmMetAP1. The conditions noted are these: read-out: L. major promastigotes over-expressing LmMetAP1 EC50. Type of data set: cell-based.
Experimental: (§2) Compounds were screened against L. major strain friedlin clone V1 promastigotes expressing firefly luciferase at concentrations ranging from 100 μM-780 nM in a 96 well plate. These experiments were done in triplicates using L. major media and 10^6 parasites per well. The plates were incubated for 24, 48, 72 and 96 hours at 28° C. Amphotericin B (AB) was used as a positive control at 5 μM as a comparison to the leishmanicidal activity of the inhibitors. The inhibitory effects of the compounds were assessed by monitoring parasite survival through luciferase activity. The substrate 5′-fluoroluciferin (ONE-Glo Luciferase Assay System, Promega, Madison, Wis.) was added according to the manufacturer's protocol after each time point. The plates were read using a luminometer (Luminoskan, Thermo Scientific, Rockford, Ill.). Data was analyzed using GraphPad Prism Software (GraphPad Software, Inc., La Jolla, Calif.).
LmMetAP1 was cloned in the Leishmania expression vector pXG, and parasites were transfected. The parasites overexpressing LmMetAP1 were selected for and cloned.
Data set [2] relates to Wild-type L. major promastigotes. Description: Leishmania major luciferase assay, wild type promastigotes. The conditions noted are these: read-out: Wild-type L. major promastigotes EC50.
Experimental: Promastigote forms of L. major strain Friedlin clone V1 expressing firefly luciferase were grown in M199 medium supplemented with hemin and 10% fetal bovine serum (FBS) inactivated at 56° C. for 30 minutes and treated with 50 ng/mL streptothricin neosulfate for maintenance of LUC gene.
as §2
Another data set has as its target T2, LmMetAP1 (Leishmania major, UniProt Q4QDG7).
T2 sequence (Q4QDG7 1-401): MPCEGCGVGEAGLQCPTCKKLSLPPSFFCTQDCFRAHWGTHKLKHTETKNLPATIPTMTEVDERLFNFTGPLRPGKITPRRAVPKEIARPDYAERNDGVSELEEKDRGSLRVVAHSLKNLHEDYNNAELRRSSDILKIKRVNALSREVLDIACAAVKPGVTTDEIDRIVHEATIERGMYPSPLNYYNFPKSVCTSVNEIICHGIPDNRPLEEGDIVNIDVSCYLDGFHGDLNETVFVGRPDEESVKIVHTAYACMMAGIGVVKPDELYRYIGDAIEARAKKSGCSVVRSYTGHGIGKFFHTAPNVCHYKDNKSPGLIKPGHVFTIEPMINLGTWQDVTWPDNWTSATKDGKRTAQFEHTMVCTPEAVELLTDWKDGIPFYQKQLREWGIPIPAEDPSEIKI
The experiment in a line: LmMetAP1 enzyme inhibition (l-Met-pNA). The format is biochemical.

In data set [3] the test system is E. faecalis OG1RF. The experiment in a line: Assay of E. faecalis inhibition (MIC) in BHI culture. The conditions noted are these: Enterococcus faecalis, read-out: Minimum Inhibitory Concentration MIC30 OG1RF.
Data set [4] has as its system E. faecalis V583. Described as above.
Data set [5] concerns E. faecalis OG1RF. The experiment in a line: Liquid-based C. elegans infection model, survival. The format is in vivo, Enterococcus faecalis. The conditions noted are these: C. elegans.
Data set [6] has as its system E. faecalis V583. The experiment in a line: Liquid-based C. elegans infection model, survival.
A further data set has as its system M. bovis BCG. The format is cell-based, Mycobacterium bovis. The conditions noted are these: for CFU from cellular lysates (intracellular M. bovis BCG): 7 d p.i., RIF 5.0 μg/mL, INH 0.1 μg/mL.
The target of another data set is MtMetAP1a (Mycobacterium tuberculosis, UniProt P9WK21). The experiment in a line: MetAP enzyme inhibition IC50 (Met-Pro-pNA coupled assay). Type of data set: biochemical.
A further data set has as its target MtMetAP1c (Mycobacterium tuberculosis, UniProt P9WK19). The data set is described as above. The format is biochemical. As for the experimental part: A primary high throughput screen was conducted using MAP-C2 microplate processor (Titertek Instruments, Inc., Huntsville, Ala. USA). A library of 175,000 compounds at 30 μM were assayed in a 384 well plates using a dipeptide chromogenic substrate, methionine-proline coupled to p-Nitroaniline (Met-Pro-pNA). Each compound was dissolved in DMSO and stored at −20° C. until use. The total reaction volume was 50 μL, and each reaction contained 40 mM HEPES buffer (pH 7.5), 100 mM NaCl, […], 0.1 U/mL ProAP, 1.5 mM CoCl2, […] (Met-Pro-pNA), and 252 nM MtMetAP1c. The enzyme was pre-incubated with compounds for 20 minutes at room temperature followed by addition of […]. The reaction was then incubated at room temperature for 30 min and monitored at 405 nm on a spectrophotometer.
as §1

For the next data set, the system named is C. elegans. Description: Toxicity in non-infected C. elegans. The conditions noted are these: 10 μg/mL.

HsMetAP2, sequence (P50579 whole entry): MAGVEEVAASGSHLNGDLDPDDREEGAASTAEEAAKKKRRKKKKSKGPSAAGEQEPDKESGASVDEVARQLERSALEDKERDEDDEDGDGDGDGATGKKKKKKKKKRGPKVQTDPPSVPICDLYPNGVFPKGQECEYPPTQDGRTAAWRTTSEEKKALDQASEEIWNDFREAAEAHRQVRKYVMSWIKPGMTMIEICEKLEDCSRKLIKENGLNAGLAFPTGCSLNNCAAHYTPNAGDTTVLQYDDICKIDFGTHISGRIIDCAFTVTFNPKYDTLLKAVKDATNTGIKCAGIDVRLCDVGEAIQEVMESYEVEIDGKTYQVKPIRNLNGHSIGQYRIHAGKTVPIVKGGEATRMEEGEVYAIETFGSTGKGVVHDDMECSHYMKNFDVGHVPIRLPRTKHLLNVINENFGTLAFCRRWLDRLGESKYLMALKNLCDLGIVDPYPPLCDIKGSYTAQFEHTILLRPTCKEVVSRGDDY
MtMetAP1a, sequence (P9WK21 whole entry): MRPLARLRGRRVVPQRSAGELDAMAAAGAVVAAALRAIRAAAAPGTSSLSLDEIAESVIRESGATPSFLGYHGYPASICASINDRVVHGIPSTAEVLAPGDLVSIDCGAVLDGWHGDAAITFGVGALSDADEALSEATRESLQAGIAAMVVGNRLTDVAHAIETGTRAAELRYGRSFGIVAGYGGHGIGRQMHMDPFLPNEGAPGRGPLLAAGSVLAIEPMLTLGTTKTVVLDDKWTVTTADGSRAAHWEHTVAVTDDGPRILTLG
MtMetAP1c, sequence (P9WK19 whole entry): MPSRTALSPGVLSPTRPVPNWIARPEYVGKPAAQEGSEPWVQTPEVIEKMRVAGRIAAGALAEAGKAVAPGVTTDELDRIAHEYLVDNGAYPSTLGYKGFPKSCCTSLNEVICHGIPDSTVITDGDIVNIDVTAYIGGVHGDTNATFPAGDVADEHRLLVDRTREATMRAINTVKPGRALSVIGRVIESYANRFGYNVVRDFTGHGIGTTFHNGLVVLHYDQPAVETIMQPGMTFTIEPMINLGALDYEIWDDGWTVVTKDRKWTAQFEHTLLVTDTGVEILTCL

Consider `CC(=O)Oc1c(Cl)cc(Cl)c2cccnc12`, for which the IC50 on EfMetAP1 was 14.6 µM.
`O=C(N/N=C/c1c(O)ccc2ccccc12)c1ccncc1` [Compound 1, 2-hydroxy-1-naphthylaldehyde isonicotinoyl hydrazone]: the IC50 at HsMetAP2 was 146 µM; on HsMetAP1, 315 µM; in the data set with HIV-1 transcription, 2 µM; on LmMetAP1 (read-out: MetAP IC50 LmMetAP1) it was 10 to 100 µM. Besides, the MIC in the data set on M. tuberculosis CDC 1551 is under 10 µg/mL. Moreover, the “concentration that perturbed the growth of aged non-growing Mtb bacilli” value in the data set with M. tuberculosis H37Ra (XTT) was found to be 1.82 µg/mL. Also, the “inhibition of HIV-1 p24 antigen production” value (shortened to “inhibition”) with HIV-1 (89.6 strain) is “inhibited the production of HIV-1 p24 antigen in a dose response manner”. The “inhibitory concentration equivalent to negative control (blank)” value with HIV-1 (89.6 strain) stood at 274.0 nM. The EC50 (commonly the midpoint of the concentration-response curve) in data set [1] was over 10 µM; in data set [2], 0.64 µM.
On to `Oc1ccccc1/C=N/Nc1ncnc2sc3c(c12)CCCC3` [Compound 2, 2-{(E)-[2-(5,6,7,8-tetrahydro[1]benzothieno[2,3-d]pyrimidin-4-yl)hydrazinylidene]methyl}phenol], for which the MIC in the data set on M. tuberculosis CDC 1551 is under 10 µg/mL. Besides, in the data set on HIV-1 (89.6 strain), the “inhibition” value is reported as “inhibited p24 antigen productions in a dose dependent manner” and the “inhibitory concentration equivalent to negative control (blank)” value stood at 234.0 nM. Moreover, in data set [1], the 50% effective concentration (EC50) is 9 µM. In addition, the EC50 in [2] amounted to 0.375 µM. On LmMetAP1, this compound returned an IC50 of over 2.5 µM.
As to `Cc1nc(-c2ccccn2)nc(N(C)Cc2ccccc2)c1Cl` [Compound 3, N-benzyl-5-chloro-N,6-dimethyl-2-(pyridin-2-yl)pyrimidin-4-amine], in the data set on M. tuberculosis CDC 1551, the MIC was under 5 µg/mL. Besides, the “inhibition” value in the data set with HIV-1 (89.6 strain) is listed as “inhibited p24 antigen productions in a dose dependent manner”. The EC50 in [1] amounted to 5 µM; in [2], 0.243 µM. For the same compound, the IC50 against LmMetAP1 is over 1 µM.
Take `Clc1cc2c(c3ncccc13)OCN(C1CCCCC1)C2` [Compound 8, 6-chloro-3-cyclohexyl-3,4-dihydro-2H-[1,3]oxazino[5,6-h]quinolin]: the MIC was in the range of 5 to 10 µg/mL (≈ 16.5 to 33 µM) in the data set with E. faecalis OG1RF [3] and 0.5 to 1.5 µg/mL (≈ 1.65 to 4.95 µM) with E. faecalis V583 [4] (Enterococcus faecalis, V583, read-out: Minimum Inhibitory Concentration MIC30 V583). In addition, in the data set with E. faecalis V583 [4], the “Minimum Inhibitory Concentration MIC30 V583” value lay within 0.50 to 1.50 µg/mL. Besides, the results for the IC50 with HIV-1 (89.6 strain) and at EfMetAP1 were over 3.75 µM and 5.24 µM, respectively. In addition, in the data set on E. faecalis OG1RF [5], the “MPC (Minimum Protective Concentration) OG1RF” value was determined as 4e-11 µg/mL. Also, the “MmaxPC (Maximum Protective Concentration) OG1RF” value in the data set on E. faecalis OG1RF [5] was determined as 4e-08 µg/mL. Also, the “MPC (Minimum Protective Concentration) V583” value with E. faecalis V583 [6] came to 4e-11 µg/mL.
Take `NNC(=O)c1ccncc1` [Isoniazid, reference compound]: the IC50 in the data set on HIV-1 (89.6 strain) is over 2 µM. Further, the “CFU from cellular lysates (intracellular M. bovis BCG)” value in the data set with M. bovis BCG is reported as “dramatically reduced CFU”.
On to `CO[C@H]1/C=C/O[C@@]2(C)Oc3c(C)c(O)c4c(O)c(c(/C=N/N5CCN(C)CC5)c(O)c4c3C2=O)NC(=O)/C(C)=C\C=C\[C@H](C)[C@H](O)[C@@H](C)[C@@H](O)[C@@H](C)[C@H](OC(C)=O)[C@@H]1C` [RIF, Rifampicin], for which the “CFU from cellular lysates (intracellular M. bovis BCG)” value with M. bovis BCG is “dramatically reduced CFU”. Further, in the data set with M. bovis BCG (macrophages, 7 days), the “intracellular BCG by flow cytometry” value is listed as “Reduction”.
As to `O=C(N/N=C/c1c(O)ccc2ccccc12)c1ccncc1` [drawing 22], the IC50 at HsMetAP2 was found to be 146 µM; on HsMetAP1, 315 µM; on MtMetAP1a, 4.9 µM; against MtMetAP1c, 5.3 µM. For the same compound, in the data set on M. tuberculosis CDC 1551, the “Minimum Inhibitory Concentration Wild-type M. tuberculosis Strain CDC1551” value is under 10.0 µg/mL.
Regarding `Oc1ccccc1/C=N/Nc1ncnc2sc3c(c12)CCCC3` [drawing 23], the “Minimum Inhibitory Concentration Wild-type M. tuberculosis Strain CDC1551” value in the data set on M. tuberculosis CDC 1551 is under 10.0 µg/mL. Further, the IC50 on MtMetAP1a and against MtMetAP1c was under 30 µM each time.
On to `Cc1nc(-c2ccccn2)nc(N(C)Cc2ccccc2)c1Cl` [drawing 24], for which the “Minimum Inhibitory Concentration Wild-type M. tuberculosis Strain CDC1551” value in the data set on M. tuberculosis CDC 1551 is under 5.0 µg/mL.
As to `O=C(N/N=C/c1c(O)ccc2ccccc12)c1ccncc1` [drawing 25], the MIC in the data set with M. tuberculosis H37Ra is 6.25 µM (≈ 1.82 µg/mL).
On to `Oc1ccccc1/C=N/Nc1ncnc2sc3c(c12)CCCC3` [drawing 26], for which the MIC in the data set with M. tuberculosis H37Ra came out at 25 µM (≈ 8.11 µg/mL).
For `Oc1c(Br)cc(Cl)c2cccnc12` [drawing 36], on EfMetAP1, the IC50 was 12 µM.
Still for that read-out and setting: for `Oc1c(I)cc(Cl)c2cccnc12` [drawing 38] the value was 18.4 µM.
Consider `CN(C)[C@@H]1C(O)=C(C(N)=O)C(=O)[C@@]2(O)C(O)=C3C(=O)c4c(O)cccc4[C@@](C)(O)[C@H]3C[C@@H]12` [tetracycline], for which, in the data set on C. elegans, the “survival of non-infected animals” value is “did not decrease survival”.
